According to BindingDB's records for patent US20230340011 (Asteroid Therapeutics, 2023):

Experiments:
[1] = target: T1, Sterol regulatory element-binding protein 2 (Homo sapiens, UniProt Q12772); assay: In Vitro Assay-SREBP-2
T1 sequence (Q12772 whole entry): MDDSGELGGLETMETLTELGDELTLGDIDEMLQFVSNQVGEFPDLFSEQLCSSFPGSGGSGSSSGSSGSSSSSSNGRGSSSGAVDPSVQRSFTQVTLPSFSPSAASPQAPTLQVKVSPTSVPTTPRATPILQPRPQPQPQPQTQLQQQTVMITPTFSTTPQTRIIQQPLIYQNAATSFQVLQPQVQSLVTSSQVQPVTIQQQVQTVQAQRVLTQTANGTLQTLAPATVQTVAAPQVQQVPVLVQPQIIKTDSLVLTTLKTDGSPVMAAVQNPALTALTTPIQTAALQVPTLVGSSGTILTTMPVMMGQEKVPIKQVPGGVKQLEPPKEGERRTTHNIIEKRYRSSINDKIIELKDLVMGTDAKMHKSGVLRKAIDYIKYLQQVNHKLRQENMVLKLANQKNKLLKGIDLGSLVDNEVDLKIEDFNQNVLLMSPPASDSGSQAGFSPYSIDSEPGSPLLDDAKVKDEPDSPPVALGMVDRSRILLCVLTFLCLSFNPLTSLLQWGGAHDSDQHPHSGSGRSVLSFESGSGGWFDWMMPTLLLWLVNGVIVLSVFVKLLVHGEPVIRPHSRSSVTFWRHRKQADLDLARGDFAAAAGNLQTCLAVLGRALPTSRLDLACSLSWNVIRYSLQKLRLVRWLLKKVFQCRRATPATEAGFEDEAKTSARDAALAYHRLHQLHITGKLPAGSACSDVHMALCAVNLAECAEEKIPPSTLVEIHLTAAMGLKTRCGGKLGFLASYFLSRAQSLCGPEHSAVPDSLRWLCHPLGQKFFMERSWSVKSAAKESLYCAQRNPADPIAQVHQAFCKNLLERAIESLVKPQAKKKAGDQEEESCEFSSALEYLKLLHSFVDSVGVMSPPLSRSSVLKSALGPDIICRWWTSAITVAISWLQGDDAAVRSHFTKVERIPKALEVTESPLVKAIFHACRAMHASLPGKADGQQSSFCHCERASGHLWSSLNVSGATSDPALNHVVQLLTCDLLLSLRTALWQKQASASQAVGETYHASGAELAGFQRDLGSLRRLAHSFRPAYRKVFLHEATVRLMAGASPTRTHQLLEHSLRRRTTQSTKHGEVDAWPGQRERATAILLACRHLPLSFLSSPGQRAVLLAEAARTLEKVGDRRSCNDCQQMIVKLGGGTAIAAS
Protocol: 10,000 cells/well of the PathHunter U2OS SREBP-2 Nuclear Translocation Cell Line are plated in quadruplicate on 384 well plates in 20 μL of AssayComplete cell plating 5 reagent (CP5-high serum) overnight at 37° C./5% CO2. A dilution series of test compound is added to cells, incubated for 1 hour at 37° C./5% CO2, and U18666A (a known SREBP agonist) is added to a final concentration of 10 μM. The plate is incubated overnight (16 hours) at 37° C./5% CO2. PathHunter Flash detection mix is added to the wells, incubated one hour in the dark, and the plate read on an Envision luminometer.

[2] = target: T2, Oxysterols receptor LXR-beta (Homo sapiens, UniProt P55055); assay: In Vitro Assay-LXRβ
T2 sequence (P55055 whole entry): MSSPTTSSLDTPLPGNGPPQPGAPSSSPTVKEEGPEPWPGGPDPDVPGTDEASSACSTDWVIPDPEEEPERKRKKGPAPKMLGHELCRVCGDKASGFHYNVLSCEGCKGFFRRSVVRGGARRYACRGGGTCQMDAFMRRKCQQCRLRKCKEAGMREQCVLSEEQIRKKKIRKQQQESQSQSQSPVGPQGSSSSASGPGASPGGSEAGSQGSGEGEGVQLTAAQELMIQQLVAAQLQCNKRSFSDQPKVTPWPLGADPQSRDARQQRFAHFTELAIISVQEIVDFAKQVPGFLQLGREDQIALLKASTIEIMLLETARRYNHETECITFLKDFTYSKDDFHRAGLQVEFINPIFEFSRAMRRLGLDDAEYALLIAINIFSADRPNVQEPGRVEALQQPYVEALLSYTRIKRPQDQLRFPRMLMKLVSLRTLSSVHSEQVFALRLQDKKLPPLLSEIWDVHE
Protocol: PathHunter NHR CHO cells stably transfected with tagged full-length human LXRβ and a nuclear fusion protein containing Steroid Receptor Co-activator Peptide (SRCP). The full-length human LXRβ was tagged with the ProLink component of the DiscoverX Enzyme Fragment Complementation (EFC) system and the SRCP domain is fused to the enzyme acceptor component (EA) expressed in the nucleus. Cells were seeded in a total volume of 20 μL into white walled, 384-well microplates and incubated at 37 C. overnight prior to testing. Assay media contained charcoal-dextran filtered serum to reduce the level of hormones present. Final assay vehicle concentration was 1%. […] Microplates were read following signal generation with a PerkinElmer Envision instrument for chemiluminescent signal detection.

IC50 [2]	Structure (SMILES)	IC50 [1]
	COC(=O)N1CCN(C(=O)CCC[C@H]2CC[C@H]3[C@@H]4CC=C5C[C@@H](O)CC[C@]5(C)[C@H]4CC[C@]23C)CC1 [US20230340011, Example 421.]	≤ 250 nM
	C[C@H](CCC(=O)N1CCN(C(=O)c2ccnnc2)CC1)[C@H]1CC[C@H]2[C@@H]3CC=C4C[C@@H](O)CC[C@]4(C)[C@H]3CC[C@]12C [US20230340011, Example 389.]	≤ 250 nM
in the range around 5500 nM	Cc1cccc(/C=C/[C@@H](C)[C@H]2CC[C@H]3[C@@H]4CC=C5C[C@@H](O)CC[C@]5(C)[C@H]4CC[C@]23C)n1 [US20230340011, Example 132.]	
	CCOC(=O)N1CCN(C(=O)CC[C@@H](C)[C@H]2CC[C@H]3[C@@H]4CC=C5C[C@@H](O)CC[C@]5(C)[C@H]4CC[C@]23C)CC1 [US20230340011, Example 422.]	≤ 250 nM
